The record followed here is patent US20240398813A1, “PHARMACEUTICAL COMPOSITION FOR PREVENTING OR TREATING OVERACTIVE BLADDER” (GWANGJU INSTITUTE OF SCIENCE AND TECHNOLOGY, priority 2021, published 2024).

Where “and” joins values, the source holds several entries; their conditions need not be identical. Identical values can stand only once.

In assay [1] the target is T1, hyperactive mutant BKCa channels (hSlo G803D/N806K) stably expressed in AD 293 cells (Homo sapiens, UniProt Q12791, G856D/N859K).
T1 construct: expressed in transfected cells
Nature of the assay: Cell-based fluorescence assay (FluxOR Potassium Ion Channel Assay) of BKCa channel activation. The conditions noted are these: compounds at 5 μM; n=3; vehicle 0.26.

Assay [2] has as its target T1, hyperactive mutant BKCa channels (hSlo G803D/N806K) stably expressed in AD 293 cells. Described as above. More on the design: key to Channel activity increase for 80 s (ΔRFU) at 6 μM: ratio of ΔRFU (RFU at 100 s − 20 s) to the same ΔRFU for vehicle. The conditions noted are these: for Initial velocity of channel activation for 4 s (vi) at 6 μM: first 4 s after channel stimulation; for Channel activity increase for 80 s (ΔRFU) at 6 μM: normalized by vehicle; for EC50: fit of dose-response curve of initial rates, read-out: Apparent EC50 based on vi; for activation effect on the BKCa channels at a single concentration: 3 μM. How it is done:
AD 293 cells, which are derivatives of the commonly used HEK 293 cell line and stably express hyperactive mutant BKCa channels (hSlo G803D/N806K) to sensitively detect the effect (Lee et al., 2013), were cultured in Dulbecco' modified Eagle medium (Hyclone, Logan, Utah, […]) supplemented with 10% fetal bovine serum, and selected with 1 mg/mL Geneticin (Gibco, Amarillo, TX, USA). 20,000 cells per well were seeded on a 96-well clear-bottom black plate (Corning, New York, NY, USA) coated with poly-D-lysine (Gibco). BKCa channel activity was measured using the cell-based fluorescence assay, FluxOR Potassium Ion Channel Assay (Thermo Fisher Scientific, Waltham, MA, USA). Experimental procedures were performed according to the manufacturer's instructions. The cells were treated with test compounds dissolved in assay buffer for 15 minutes. Fluorescence was measured using a FlexStation3 multimode microplate reader (Molecular Devices, Silicon Valley, CA, USA) and SoftMax Pro (Molecular Devices). Excitation and emission wavelengths were set to 485 nm and 528 nm, respectively. Fluorescence signals were acquired every 2 seconds for 120 seconds and normalized by the relative fluorescence unit (RFU). The efficacy of a channel activator was determined by analyzing changes (ΔRFU) in the RFU for 80 seconds after channel stimulation.
Activation effects of the synthesized compounds on BKCa channels were evaluated using cell-based fluorescence assay. NS11021 was used as the positive control. The effects were determined based on the initial rate (vi) of channel activation and the apparent EC50 value obtained from fitting data of the dose-response curve. Here, Vi means change values for 4 seconds at the start of channel opening (vi={RFU(t=24 s)−RFU(t=20 s)}/4 s). […]

T1 sequence (Q12791 whole entry G856D/N859K): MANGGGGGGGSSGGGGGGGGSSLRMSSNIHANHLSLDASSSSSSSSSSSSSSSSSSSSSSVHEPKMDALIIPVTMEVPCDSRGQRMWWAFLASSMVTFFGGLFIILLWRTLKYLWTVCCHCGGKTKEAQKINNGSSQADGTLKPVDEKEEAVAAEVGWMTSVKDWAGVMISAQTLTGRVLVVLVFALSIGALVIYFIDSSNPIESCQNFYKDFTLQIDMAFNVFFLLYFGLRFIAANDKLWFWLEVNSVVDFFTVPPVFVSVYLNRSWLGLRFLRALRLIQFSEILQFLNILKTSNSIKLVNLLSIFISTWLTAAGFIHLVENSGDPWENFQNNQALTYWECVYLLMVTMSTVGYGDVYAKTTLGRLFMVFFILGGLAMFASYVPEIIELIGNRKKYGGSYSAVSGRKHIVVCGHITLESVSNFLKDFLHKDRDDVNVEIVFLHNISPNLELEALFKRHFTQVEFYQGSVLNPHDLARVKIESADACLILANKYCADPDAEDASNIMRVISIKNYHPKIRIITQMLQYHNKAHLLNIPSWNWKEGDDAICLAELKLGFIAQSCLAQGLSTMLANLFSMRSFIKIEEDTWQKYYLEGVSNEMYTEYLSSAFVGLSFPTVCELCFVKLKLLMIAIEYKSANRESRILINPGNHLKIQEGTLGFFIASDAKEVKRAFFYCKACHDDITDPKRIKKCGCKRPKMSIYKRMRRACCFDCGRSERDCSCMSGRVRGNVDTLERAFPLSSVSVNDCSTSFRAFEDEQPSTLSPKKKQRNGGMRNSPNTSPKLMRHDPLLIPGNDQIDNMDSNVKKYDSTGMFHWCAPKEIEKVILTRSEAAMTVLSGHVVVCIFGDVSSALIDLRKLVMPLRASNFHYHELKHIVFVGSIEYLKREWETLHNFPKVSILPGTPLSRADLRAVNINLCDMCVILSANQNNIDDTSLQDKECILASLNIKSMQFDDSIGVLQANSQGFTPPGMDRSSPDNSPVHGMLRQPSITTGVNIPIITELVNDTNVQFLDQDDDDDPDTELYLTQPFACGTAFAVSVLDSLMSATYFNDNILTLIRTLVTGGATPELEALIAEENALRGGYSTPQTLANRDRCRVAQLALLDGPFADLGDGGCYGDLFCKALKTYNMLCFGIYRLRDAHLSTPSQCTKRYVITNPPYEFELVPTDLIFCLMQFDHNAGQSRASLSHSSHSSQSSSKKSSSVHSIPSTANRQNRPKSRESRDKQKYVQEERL

On to `Cc1ccc(NC(=O)c2sc(=S)n3c2[nH]c(=O)c2cc(Cl)ccc23)c(C)c1` [TTQC-9, 7-chloro-N-(2,4-dimethylphenyl)-5-oxo-1-thioxo-4,5-dihydro-1H-thiazolo[3,4-a]quinazoline-3-carboxamide], for which the “Activity (ΔRFU normalized by activities of LDD175)” value in assay [1] is recorded as 0.84.
As for `CNC(=O)c1sc(=S)n2c1[nH]c(=O)c1ccc(Cl)cc12` [TTQC-25, 8-chloro-N-methyl-5-oxo-1-thioxo-4,5-dihydro-1H-thiazolo[3,4-a]quinazoline-3-carboxamide], the “Activity (ΔRFU normalized by activities of LDD175)” value in assay [1] worked out at 0.50.
As to `O=C(NC1CCCC1)c1sc(=S)n2c1[nH]c(=O)c1ccc(Cl)cc12` [TTQC-23, 8-chloro-N-cyclopentyl-5-oxo-1-thioxo-4,5-dihydro-1H-thiazolo[3,4-a]quinazoline-3-carboxamide], the “Activity (ΔRFU normalized by activities of LDD175)” value in assay [1] is 0.55.
In general, EC50 refers to the concentration giving half of the maximal effect. `O=C(Nc1cccc(OC(F)(F)F)c1)c1sc(=S)n2c1[nH]c(=O)c1cc(Br)ccc12` [Compound 209, 7-bromo-5-oxo-1-thioxo-N-(3-(trifluoromethoxy)phenyl)-4,5-dihydro-1H-thiazolo[3,4-a]quinazoline-3-carboxamide]: in assay [2], the “Initial velocity of channel activation for 4 s (vi) at 6 μM” value (“Initial velocity of channel activation” below) was 14.78 s⁻¹, the “Channel activity increase for 80 s (ΔRFU) at 6 μM” value came to 4.37 and the concentration giving a half-maximal response (EC50) worked out at 3.82 µM.
On to `FC(F)(F)c1cc(NC(=S)Nc2ccc(Br)cc2-c2nn[nH]n2)cc(C(F)(F)F)c1` [NS11021, reference compound], for which, in assay [2], the “activation effect on the BKCa channels at a single concentration” value (“activation effect on the BKCa channels” below) is “significant activation effects”; the “Initial velocity of channel activation” value was found to be 1.63 s⁻¹; the “Channel activity increase for 80 s (ΔRFU) at 6 μM” value was 1.86; the EC50 was 14.9 µM and 14.3 µM.
On to `O=C(Nc1ccccc1)c1sc(=S)n2c1[nH]c(=O)c1ccc(Cl)cc12` [Compound 103, 8-chloro-5-oxo-N-phenyl-1-thioxo-4,5-dihydro-1H-thiazolo[3,4-a]quinazoline-3-carboxamide], for which the “Channel activity increase for 80 s (ΔRFU) at 6 μM” value in assay [2] was determined as 1.56.
Regarding `Cc1ccc2c(=O)[nH]c3c(C(=O)Nc4ccccc4)sc(=S)n3c2c1` [Compound 102, 8-methyl-5-oxo-N-phenyl-1-thioxo-4,5-dihydro-1H-thiazolo[3,4-a]quinazoline-3-carboxamide], in assay [2], the “Initial velocity of channel activation” value is 0.23 s⁻¹ and the “Channel activity increase for 80 s (ΔRFU) at 6 μM” value came out at 1.06.
In the case of `C=C(C)[C@H](CC=C(C)C)Cc1c(O)cc(OC)c2c1O[C@H](c1ccc(O)cc1O)CC2=O` [kurarinone, reference compound], the “activation effect on the BKCa channels” value in assay [2] was “significant activation effects”.
Regarding `O=C(Nc1ccccc1)c1sc(=S)n2c1[nH]c(=O)c1cc(Cl)ccc12` [Compound 106, 7-chloro-5-oxo-N-phenyl-1-thioxo-4,5-dihydro-1H-thiazolo[3,4-a]quinazoline-3-carboxamide], in assay [2], the “Initial velocity of channel activation” value came out at 0.38 s⁻¹ and the “Channel activity increase for 80 s (ΔRFU) at 6 μM” value worked out at 1.18.
As to `NC(=O)c1sc(=S)n2c1[nH]c(=O)c1ccccc12` [Compound 4, 5-oxo-1-thioxo-4,5-dihydro-1H-thiazolo[3,4-a]quinazoline-3-carboxamide], in assay [2], the “Initial velocity of channel activation” value is 0.32 s⁻¹ and the “Channel activity increase for 80 s (ΔRFU) at 6 μM” value is on record as 0.96.
As for `O=C(Nc1cc(C(F)(F)F)cc(C(F)(F)F)c1)c1sc(=S)n2c1[nH]c(=O)c1cc(Br)ccc12` [Compound 210, N-(3,5-bis(trifluoromethyl)phenyl)-7-bromo-5-oxo-1-thioxo-4,5-dihydro-1H-thiazolo[3,4-a]quinazoline-3-carboxamide], in assay [2], the “Initial velocity of channel activation” value worked out at 2.08 s⁻¹, the “Channel activity increase for 80 s (ΔRFU) at 6 μM” value turned out to be 2.28 and the EC50 came out at 17.3 µM.
Take `Cc1ccccc1NC(=O)c1sc(=S)n2c1[nH]c(=O)c1cc(Br)ccc12` [Compound 201, 7-bromo-5-oxo-1-thioxo-N-(o-tolyl)-4,5-dihydro-1H-thiazolo[3,4-a]quinazoline-3-carboxamide]: in assay [2], the “Initial velocity of channel activation” value stood at 9.40 s⁻¹, the “Channel activity increase for 80 s (ΔRFU) at 6 μM” value is on record as 3.68 and the EC50 was found to be 4.6 µM.
Regarding `O=C(O)c1sc(=S)n2c1[nH]c(=O)c1ccccc12` [Compound 3, 5-oxo-1-thioxo-4,5-dihydro-1H-thiazolo[3,4-a]quinazoline-3-carboxylic acid], in assay [2], the “Initial velocity of channel activation” value turned out to be 0.38 s⁻¹, the “Channel activity increase for 80 s (ΔRFU) at 6 μM” value is given as 1.38 and the EC50 came to 12.7 µM.
In the case of `COc1cccc(NC(=O)c2sc(=S)n3c2[nH]c(=O)c2cc(Br)ccc23)c1` [Compound 204, 7-bromo-N-(3-methoxyphenyl)-5-oxo-1-thioxo-4,5-dihydro-1H-thiazolo[3,4-a]quinazoline-3-carboxamide], in assay [2], the “Initial velocity of channel activation” value was determined as 6.00 s⁻¹, the “Channel activity increase for 80 s (ΔRFU) at 6 μM” value was 3.35 and the EC50 is 6.6 µM.
On to `O=C(NCc1ccccc1)c1sc(=S)n2c1[nH]c(=O)c1ccccc12` [Compound 5, N-benzyl-5-oxo-1-thioxo-4,5-dihydro-1H-thiazolo[3,4-a]quinazoline-3-carboxamide], for which, in assay [2], the “Initial velocity of channel activation” value was found to be 0.26 s⁻¹ and the “Channel activity increase for 80 s (ΔRFU) at 6 μM” value amounted to 1.10.
On to `CC(=O)c1c(O)c(C)c(O)c(Cc2c(O)c3c(c(C(=O)/C=C/c4ccccc4)c2O)OC(C)(C)C=C3)c1O` [rottlerin, reference compound], for which, in assay [2], the “activation effect on the BKCa channels” value is “significant activation effects”.
As to `O=C(Nc1cccc(Cl)c1)c1sc(=S)n2c1[nH]c(=O)c1cc(Br)ccc12` [Compound 207, 7-bromo-N-(3-chlorophenyl)-5-oxo-1-thioxo-4,5-dihydro-1H-thiazolo[3,4-a]quinazoline-3-carboxamide], in assay [2], the “Initial velocity of channel activation” value was 16.12 s⁻¹, the “Channel activity increase for 80 s (ΔRFU) at 6 μM” value stood at 3.56 and the EC50 amounted to 4.85 µM.
In the case of `O=C(Nc1cccc(O)c1)c1sc(=S)n2c1[nH]c(=O)c1cc(Br)ccc12` [Compound 205, 7-bromo-N-(3-hydroxyphenyl)-5-oxo-1-thioxo-4,5-dihydro-1H-thiazolo[3,4-a]quinazoline-3-carboxamide], in assay [2], the “Initial velocity of channel activation” value was 4.03 s⁻¹, the “Channel activity increase for 80 s (ΔRFU) at 6 μM” value was 4.88 and the EC50 came to 11.2 µM.
In the case of `Cc1ccc(NC(=O)c2sc(=S)n3c2[nH]c(=O)c2cc(Br)ccc23)cc1` [Compound 203, 7-bromo-5-oxo-1-thioxo-N-(p-tolyl)-4,5-dihydro-1H-thiazolo[3,4-a]quinazoline-3-carboxamide], in assay [2], the “Initial velocity of channel activation” value was determined as 0.71 s⁻¹ and the “Channel activity increase for 80 s (ΔRFU) at 6 μM” value amounted to 1.41.
On to `O=C(Nc1cccc(F)c1)c1sc(=S)n2c1[nH]c(=O)c1cc(Br)ccc12` [Compound 206, 7-bromo-N-(3-fluorophenyl)-5-oxo-1-thioxo-4,5-dihydro-1H-thiazolo[3,4-a]quinazoline-3-carboxamide], for which, in assay [2], the “BKCa activity” value is given as “significant improvement”, the “Initial velocity of channel activation” value stood at 12.55 s⁻¹, the “Channel activity increase for 80 s (ΔRFU) at 6 μM” value was found to be 2.85 and the EC50 was determined as 1.14 µM.
As to `O=C(Nc1ccccc1)c1sc(=S)n2c1[nH]c(=O)c1ccccc12` [Compound 101, 5-oxo-N-phenyl-1-thioxo-4,5-dihydro-1H-thiazolo[3,4-a]quinazoline-3-carboxamide], in assay [2], the “Initial velocity of channel activation” value is 0.42 s⁻¹ and the “Channel activity increase for 80 s (ΔRFU) at 6 μM” value is reported as 1.03.
For `O=C(Nc1ccccc1)c1sc(=S)n2c1[nH]c(=O)c1cc(Br)ccc12` [Compound 107, 7-bromo-5-oxo-N-phenyl-1-thioxo-4,5-dihydro-1H-thiazolo[3,4-a]quinazoline-3-carboxamide], in assay [2], the “Initial velocity of channel activation” value is 5.51 s⁻¹, the “Channel activity increase for 80 s (ΔRFU) at 6 μM” value is 3.83 and the EC50 is 12.3 µM.
In the case of `O=C(Nc1ccccc1)c1sc(=S)n2c1[nH]c(=O)c1ccc(Br)cc12` [Compound 104, 8-bromo-5-oxo-N-phenyl-1-thioxo-4,5-dihydro-1H-thiazolo[3,4-a]quinazoline-3-carboxamide], the “Channel activity increase for 80 s (ΔRFU) at 6 μM” value in assay [2] was found to be 1.25.
With `Cc1ccc2c(c1)c(=O)[nH]c1c(C(=O)Nc3ccccc3)sc(=S)n12` [Compound 105, 7-methyl-5-oxo-N-phenyl-1-thioxo-4,5-dihydro-1H-thiazolo[3,4-a]quinazoline-3-carboxamide], in assay [2], the “Initial velocity of channel activation” value turned out to be 0.32 s⁻¹ and the “Channel activity increase for 80 s (ΔRFU) at 6 μM” value was 1.16.
